The results in this text go back to paper PMC8273083 (ACS infectious diseases, 2021).

pKi: −log10 of the molar value.

For one test, the target named is TgDHOD-VSSM (Toxoplasma gondii, UniProt Q8MXD1). Description: TgDHOD inhibition. The class given is biochemical.
Test [1] has as its system T222P strain of T. gondii. Briefly: microbe, parasite or virus in culture. The class given is cell-based, Toxoplasma gondii.
For another test, the system named is RH-strain T. gondii. Briefly: T. gondii growth inhibition, RH strain. The class given is cell-based. The following applies: Toxoplasma gondii, read-out: EC50 vs RH (nM).
Test [2] deals with RH-strain T. gondii tachyzoites. Description: In vivo efficacy, murine model of systemic. The arrangement: species or system CF-1 mice. The settings on record: 20 mg/kg orally once daily, in words.

One may read the pKi as −log10 of the Ki, conventionally taken in molar units. Low values mean a high Ki, high ones a low Ki. On TgDHOD-VSSM, `O=C1C(O)=C([C@H]2CC[C@H](c3ccc(Cl)cc3)CC2)C(=O)c2ccccc21` [ATV, atovaquone] gave a negative-log Ki (pKi) of 5.57.

The term EC50 denotes the concentration that produces a half-maximal response. Take `COc1cc2[nH]c3cc(Oc4ccc(OC(F)(F)F)cc4)ccc3c(=O)c2cc1F` [Compound 27]: the “effect of the T222P mutation on potency” value in test [1] (T222P versus RH strain, in words) was “confers resistance”. In addition, the EC50 is 5.61 nM in test [1] (Toxoplasma gondii, read-out: EC50 vs T222P (nM)) and 0.63 nM with RH-strain T. gondii.

`CCc1nc(N)nc(N)c1-c1ccc(Cl)cc1` [pyrimethamine]: the survival benefit entry in test [2] is on record as “no survival benefit”.
